Experimental data from PubChem BioAssay AID2060617 (Molecular Pharmacology Branch, DTP, NCI, 2025).

Tested on: 485368-065-R4-J2-PDC spheroids with HUVEC/MSC, viability
Assay: Anticancer human tumor 485368-065-R4-J2-PDC patient-derived pancreatic carcinoma cell line growth inhibition [CLK]
Conditions: for IC50: curve of first compound; for viability, T/C: stronger effect = lower value
Outline: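 Patient-derived tumor cells grown as complex spheroids with HUVEC endothelial cells and mesenchymal stem cells, treated with drug combinations. Concentrations descend in half-log steps from near clinical Cmax, or from 10 microM if Cmax unknown.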

[1] = second compound 0.0316 µM, first compound 0.0316 µM
[2] = second compound 0.0316 µM, first compound 0.1 µM
[3] = second compound 0.0316 µM, first compound 0.316 µM
[4] = second compound 0.0316 µM, first compound 1 µM
[5] = second compound 0.1 µM, first compound 0.0316 µM
[6] = second compound 0.1 µM, first compound 0.1 µM
[7] = second compound 0.1 µM, first compound 0.316 µM
[8] = second compound 0.1 µM, first compound 1 µM
[9] = second compound 0.316 µM, first compound 0.0316 µM
[10] = second compound 0.316 µM, first compound 0.1 µM
[11] = second compound 0.316 µM, first compound 0.316 µM
[12] = second compound 0.316 µM, first compound 1 µM
[13] = second compound 1 µM, first compound 0.0316 µM
[14] = second compound 1 µM, first compound 0.1 µM
[15] = second compound 1 µM, first compound 0.316 µM
[16] = second compound 1 µM, first compound 1 µM
[17] = second compound 3.16 µM, first compound 0.0316 µM
[18] = second compound 3.16 µM, first compound 0.1 µM
[19] = second compound 3.16 µM, first compound 0.316 µM
[20] = second compound 3.16 µM, first compound 1 µM
[21] = second compound 10 µM, first compound 0.0316 µM
[22] = second compound 10 µM, first compound 0.1 µM
[23] = second compound 10 µM, first compound 0.316 µM
[24] = second compound 10 µM, first compound 1 µM
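Note: spheroids exposed to compounds for seven days.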
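Throughout, for viability, T/C: 100% = DMSO vehicle control wells.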

SMILES: CCc1c2c(nc3ccc(O)cc13)-c1cc3c(c(=O)n1C2)COC(=O)[C@]3(O)CC + CN1CCN(c2cc(C(=O)Nc3cc4cc(-c5cnn(C)c5)ccc4cn3)ccn2)CC1
- IC50 (second compound 0.0316 µM): < 0.00316 µM
- IC50 (second compound 0.1 µM): < 0.00316 µM
- IC50 (second compound 0.316 µM): < 0.00316 µM
- IC50 (second compound 1 µM): < 0.00316 µM
- IC50 (second compound 3.16 µM): < 0.00316 µM
- IC50 (second compound 10 µM): < 0.00316 µM
- viability, T/C (second compound 0.0316 µM, first compound 0.00316 µM): 38.6%
- viability, T/C (second compound 0.0316 µM, first compound 0.01 µM): 20%
- viability, T/C [1]: 11.3%
- viability, T/C [2]: 7.09%
- viability, T/C [3]: 8.74%
- viability, T/C [4]: 11.7%
- viability, T/C (second compound 0.1 µM, first compound 0.00316 µM): 33.3%
- viability, T/C (second compound 0.1 µM, first compound 0.01 µM): 16.6%
- viability, T/C [5]: 9.62%
- viability, T/C [6]: 6.3%
- viability, T/C [7]: 10.2%
- viability, T/C [8]: 15.5%
- viability, T/C (second compound 0.316 µM, first compound 0.00316 µM): 26.4%
- viability, T/C (second compound 0.316 µM, first compound 0.01 µM): 12.7%
- viability, T/C [9]: 8.57%
- viability, T/C [10]: 8%
- viability, T/C [11]: 11.9%
- viability, T/C [12]: 13.1%
- viability, T/C (second compound 1 µM, first compound 0.00316 µM): 2.16%
- viability, T/C (second compound 1 µM, first compound 0.01 µM): 3.01%
- viability, T/C [13]: 7.32%
- viability, T/C [14]: 8.2%
- viability, T/C [15]: 13.4%
- viability, T/C [16]: 15.4%
- viability, T/C (second compound 3.16 µM, first compound 0.00316 µM): 3.22%
- viability, T/C (second compound 3.16 µM, first compound 0.01 µM): 5.26%
- viability, T/C [17]: 11.6%
- viability, T/C [18]: 11.3%
- viability, T/C [19]: 14.1%
- viability, T/C [20]: 13%
- viability, T/C (second compound 10 µM, first compound 0.00316 µM): 2.58%
- viability, T/C (second compound 10 µM, first compound 0.01 µM): 4.97%
- viability, T/C [21]: 9.49%
- viability, T/C [22]: 8.95%
- viability, T/C [23]: 11.7%
- viability, T/C [24]: 14%

SMILES: C#Cc1c(F)ccc2cc(O)cc(-c3ncc4c(N5CC6CCC(C5)N6)nc(OCC56CCCN5CC(F)C6)nc4c3F)c12 (centres undefined) + CNC(=O)c1ccc(Nc2nc(OC3CCCC3)c3c(-c4ccc5nc(C)oc5c4)c[nH]c3n2)c(OC)c1
- IC50 (second compound 0.0316 µM): > 10 µM
- IC50 (second compound 0.1 µM): > 10 µM
- IC50 (second compound 0.316 µM): > 10 µM
- IC50 (second compound 1 µM): > 10 µM
- IC50 (second compound 3.16 µM): 6.95 µM
- IC50 (second compound 10 µM): 5.79 µM
- viability, T/C [1]: 103%
- viability, T/C [2]: 115%
- viability, T/C [3]: 90.3%
- viability, T/C [4]: 102%
- viability, T/C (second compound 0.0316 µM, first compound 3.16 µM): 104%
- viability, T/C (second compound 0.0316 µM, first compound 10 µM): 108%
- viability, T/C [5]: 96.1%
- viability, T/C [6]: 99.8%
- viability, T/C [7]: 108%
- viability, T/C [8]: 98.4%
- viability, T/C (second compound 0.1 µM, first compound 3.16 µM): 103%
- viability, T/C (second compound 0.1 µM, first compound 10 µM): 108%
- viability, T/C [9]: 91.4%
- viability, T/C [10]: 86.5%
- viability, T/C [11]: 96.7%
- viability, T/C [12]: 87%
- viability, T/C (second compound 0.316 µM, first compound 3.16 µM): 75.8%
- viability, T/C (second compound 0.316 µM, first compound 10 µM): 70.3%
- viability, T/C [13]: 82.8%
- viability, T/C [14]: 79.4%
- viability, T/C [15]: 80.3%
- viability, T/C [16]: 71.5%
- viability, T/C (second compound 1 µM, first compound 3.16 µM): 68.8%
- viability, T/C (second compound 1 µM, first compound 10 µM): 52.3%
- viability, T/C [17]: 77.5%
- viability, T/C [18]: 72.5%
- viability, T/C [19]: 77.1%
- viability, T/C [20]: 73.2%
- viability, T/C (second compound 3.16 µM, first compound 3.16 µM): 59.4%
- viability, T/C (second compound 3.16 µM, first compound 10 µM): 45%
- viability, T/C [21]: 74.7%
- viability, T/C [22]: 73.1%
- viability, T/C [23]: 68.5%
- viability, T/C [24]: 67.7%
- viability, T/C (second compound 10 µM, first compound 3.16 µM): 57%
- viability, T/C (second compound 10 µM, first compound 10 µM): 43.1%
